# Measurements as given in patent US11384075B2, “Quinolinone compounds” (Janssen Pharmaceutica NV, priority 2017, dated 2022).
# Key:
# [1] = biological target: T1, human FGFR3 wild type enzyme (cytoplasmic domain) (Homo sapiens, UniProt P22607); assay: FGFR3 wild type mobility shift assay (enzymatic assay); type: biochemical; details: 75 μM ATP, 50 minutes at 30° C., Caliper EZ reader II
# T1 construct: human FGFR3 wild type enzyme (cytoplasmic domain, from Carna Biosciences); purchased Carna Biosciences
# Experimental: FGFR3 Wild Type Mobility Shift Assay (Enzymatic Assay)
# (§1) In a final reaction volume of 25 μL, 0.04 ng/μL human FGFR3 wild type enzyme (cytoplasmic domain, from Carna Biosciences) was incubated with 75 μM ATP, 1 μM FL-peptide 30 substrate and 250 nL of testing compound (1% DMSO final) in assay buffer (100 mM HEPES pH 7.4, 10 mM MgCl2, 0.003% Brij35, 1 mM DTT). After incubation for 50 minutes at 30° C. the reaction was stopped with 10 μL of 0.5M EDTA pH 8.0, and then 25 μL of reaction mixture was transferred to reading plate and measured on Caliper EZ reader II. The substrate-product conversion rate was used as raw data for normalization and concentration-response curve (10 dose points with 4× serial dilution, starting with 10 μM) was plotted using Prism to calculate IC50 (M), pIC50 (−log IC50) and HillSlope value.
# [2] = biological target: T2, NIH/3T3 cells overexpressing FGFR3 V555M-TACC3 fusion protein (Homo sapiens, UniProt P22607, V555M, cells depend on it); assay: NIH/3T3 FGFR3 V555M-TACC3 cell proliferation assay; type: cell-based; details: 72-hr incubation, CellTiter Glo, starting with 10 μM; read-out: NIH/3T3 FGFR3 V555M-TACC3 CTG (IC50)
# T2 construct: NIH/3T3 FGFR3 V555M-TACC3 CTG (IC50); other: 72-hr incubation, CellTiter Glo, starting with 10 μM; fused on or other part: Q9Y6A5 (Transforming acidic coiled-coil-containing protein 3)
# Experimental: NIH/3T3 FGFR3 V555M-TACC3 Cell Proliferation Assay
# (§2) In day 1, 90 μL of cell suspension (NIH/3T3 cells overexpressing FGFR3 V555M-TACC3 fusion protein) (total 30,000 cells per well in growth medium (DMEM containing 1% Glutamax, 10% FBS and 1% Pen/Strep)) was seeded in a 96-well plate and then incubated overnight at 37° C. and 5% CO2. In day 2, 10 μL of growth medium containing 10-fold stock solution of testing compound was added into cell cultures (9 dose points with 4× serial dilution, starting with 10 μM, 0.1% DMSO final). After 72-hr incubation at 37° C. and 5% CO2, in day 5 a volume of 50 μL CellTiter Glo (CTG) reagent was added into cell-containing 96-well plate and the plate was incubated at room temperature for 10 minutes before RLUs (relative light unit) were measured on a microplate reader with luminescence detection module. The RLU value was normalized to survival % and concentration-response curve was plotted using Prism to calculate IC50 (M), pIC50 (−log IC50) and HillSlope value.
# [3] = test system: NIH/3T3 cells transfected with the same control vector; assay: NIH/3T3 mock cell proliferation assay (counter assay, general toxicity); type: cell-based; details: Mus musculus, NIH3T3, 72 h, 72-hr incubation, CellTiter Glo, starting with 30 μM; counter assay for general toxicity; read-out: NIH/3T3 MOCK CTG (IC50)
# Experimental: NIH/3T3 Mock Cell Proliferation Assay
# as §2, with “cells transfected with the same control vector as in the above two proliferation assays)” for “cells overexpressing FGFR3 V555M-TACC3 fusion protein)”, “with 3×” for “with 4×”, “with 30” for “with 10”, “μM, 0.3%” for “μM, 0.1%”
# [4] = biological target: T3, human FGFR3 V555M enzyme (cytoplasmic domain carrying V555M mutation) (Homo sapiens, UniProt P22607, V555M); assay: FGFR3 V555M mobility shift assay (enzymatic assay); type: biochemical; details: 30 μM ATP, 45 minutes at 30° C., Caliper EZ reader II
# T3 construct: human FGFR3 V555M enzyme (cytoplasmic domain carrying V555M mutation, from Carna Biosciences); purchased Carna Biosciences
# Experimental: FGFR3 V555M Mobility Shift Assay (Enzymatic Assay)
# as §1, with “FGFR3 V555M” for “FGFR3 wild type”, “(cytoplasmic domain carrying V555M mutation,” for “(cytoplasmic domain,”, “with 30” for “with 75”, “for 45” for “for 50”
# [5] = biological target: T4, NIH/3T3 cells overexpressing FGFR3 WT-TACC3 fusion protein (Homo sapiens, UniProt P22607); assay: NIH/3T3 FGFR3 WT-TACC3 cell proliferation assay; type: cell-based; details: 72-hr incubation, CellTiter Glo, starting with 10 μM; read-out: NIH/3T3 FGFR3 WT-TACC3 CTG (IC50)
# T4 construct: NIH/3T3 FGFR3 WT-TACC3 CTG (IC50); other: 72-hr incubation, CellTiter Glo, starting with 10 μM; fused on or other part: Q9Y6A5 (Transforming acidic coiled-coil-containing protein 3)
# Experimental: NIH/3T3 FGFR3 WT-TACC3 Cell Proliferation Assay
# as §2, with “WT-TACC3” for “V555M-TACC3”
# T4 sequence (P22607 whole entry, change not shown, the tested form may be a part): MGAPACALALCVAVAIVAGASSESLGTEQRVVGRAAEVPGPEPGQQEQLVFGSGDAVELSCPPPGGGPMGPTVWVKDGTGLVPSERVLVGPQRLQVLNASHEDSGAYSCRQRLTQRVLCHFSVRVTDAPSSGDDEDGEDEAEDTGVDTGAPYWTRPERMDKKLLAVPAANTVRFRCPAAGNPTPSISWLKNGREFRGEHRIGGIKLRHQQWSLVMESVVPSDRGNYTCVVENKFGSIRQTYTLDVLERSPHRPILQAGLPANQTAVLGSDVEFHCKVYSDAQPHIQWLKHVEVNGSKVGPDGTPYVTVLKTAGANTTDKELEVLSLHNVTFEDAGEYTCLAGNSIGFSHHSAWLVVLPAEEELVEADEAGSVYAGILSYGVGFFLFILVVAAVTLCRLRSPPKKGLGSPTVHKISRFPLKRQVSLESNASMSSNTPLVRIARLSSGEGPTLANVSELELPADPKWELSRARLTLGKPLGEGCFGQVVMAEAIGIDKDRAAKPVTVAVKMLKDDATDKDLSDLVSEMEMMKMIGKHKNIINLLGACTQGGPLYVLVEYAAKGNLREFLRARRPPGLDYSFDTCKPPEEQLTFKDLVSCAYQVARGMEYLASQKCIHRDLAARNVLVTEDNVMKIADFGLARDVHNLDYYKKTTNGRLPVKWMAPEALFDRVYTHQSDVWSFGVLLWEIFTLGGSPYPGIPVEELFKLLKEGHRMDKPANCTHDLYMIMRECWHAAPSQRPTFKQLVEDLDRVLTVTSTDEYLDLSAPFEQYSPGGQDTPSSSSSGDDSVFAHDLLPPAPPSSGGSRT
# T1 sequence (P22607 397-806 limits assumed): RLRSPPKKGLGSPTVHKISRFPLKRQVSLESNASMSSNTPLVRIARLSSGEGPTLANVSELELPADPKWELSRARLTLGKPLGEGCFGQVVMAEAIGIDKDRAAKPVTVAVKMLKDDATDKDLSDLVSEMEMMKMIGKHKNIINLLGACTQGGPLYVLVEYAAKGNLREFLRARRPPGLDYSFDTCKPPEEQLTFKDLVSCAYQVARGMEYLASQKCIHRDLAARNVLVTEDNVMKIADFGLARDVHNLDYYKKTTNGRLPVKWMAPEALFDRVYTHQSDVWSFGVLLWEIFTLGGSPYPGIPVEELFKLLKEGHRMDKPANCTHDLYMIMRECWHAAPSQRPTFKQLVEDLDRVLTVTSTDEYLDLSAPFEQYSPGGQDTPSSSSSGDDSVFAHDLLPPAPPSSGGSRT
# T3 sequence (P22607 397-806 V555M limits assumed): as the sequence (P22607 397-806 limits assumed) above, with V159M counted along it
# T2 sequence (P22607 whole entry V555M, the tested form may be a part): as the sequence (P22607 whole entry, change not shown, the tested form may be a part) above, with V555M counted along it
SMILES,IC50 [1] [µM],GI50 [2] [µM],IC50 [4] [µM],GI50 [5] [µM],IC50 [3] [µM]
"C[C@H](Nc1c(-c2nc3ccc(N4CCOCC4)cc3[nH]2)c(=O)[nH]c2c(F)cccc12)c1ccccn1 [Compound 16, (S)-8-fluoro-3-(6-morpholino-1H-benzo[d]imidazol-2-yl)-4-((1-(pyridin-2-yl)ethyl)-amino)quinolin-2(1H)-one]",0.0166,0.274,0.00266,0.253,2.6
"CC(Nc1c(-c2nc3ccc(N4CCN(C)CC4)c(F)c3[nH]2)c(=O)[nH]c2ccccc12)c1ccccn1 (single isomer, unassigned) [Compound 13b, (S*)-3-(7-fluoro-6-(4-methylpiperazin-1-yl)-1H-benzo[d]imidazol-2-yl)-4-((1-(pyridin-2-yl)ethyl)amino)quinolin-2(1H)-one]",0.00105,0.00434,0.000449,0.00346,1.74
"C[C@H](Nc1c(-c2nc3ccc(C(=O)N4CCOCC4)cc3[nH]2)c(=O)[nH]c2ccccc12)c1ccccn1 [Compound 20, (S)-3-(6-(morpholine-4-carbonyl)-1H-benzo[d]imidazol-2-yl)-4-((1-(pyridin-2-yl)-ethyl)amino)quinolin-2(1H)-one]",0.000826,0.0171,0.00049,0.0235,0.952
"C[C@H](Nc1c(-c2nc3cc(C(F)(F)F)c(N4CCN(C)CC4)cc3[nH]2)c(=O)[nH]c2ccccc12)c1ccccn1 [Compound 14, (S)-3-(6-(4-methylpiperazin-1-yl)-5-(trifluoromethyl)-1H-benzo[d]imidazol-2-yl)-4-((1-(pyridin-2-yl)ethyl)amino)quinolin-2(1H)-one]",0.00338,0.141,0.00215,0.0522,3.01
"C[C@H](Nc1c(-c2nc3ccc(N4CCN(C)C(=O)C4)cc3[nH]2)c(=O)[nH]c2ccccc12)c1ccccn1 [Compound 15, (S)-3-(6-(4-methyl-3-oxopiperazin-1-yl)-1H-benzo[d]imidazol-2-yl)-4-((1-(pyridin-2-yl)ethyl)amino)quinolin-2(1H)-one]",0.000851,0.0249,0.000351,0.0124,1.19
"C[C@@H](Nc1c(-c2nc3ccc(N4CCOCC4)cc3[nH]2)c(=O)[nH]c2ccccc12)c1ncccn1 [Compound 3, (R)-3-(6-morpholino-1H-benzo[d]imidazol-2-yl)-4-((1-(pyrimidin-2-yl)ethyl)-amino)quinolin-2(1H)-one]",0.585,0.0418,0.204,0.0585,11

# More lines, main results first:
IC50 [1] [µM],GI50 [2] [µM],IC50 [4] [µM],GI50 [5] [µM],SMILES,IC50 [3] [µM]
0.000242,0.0108,0.00015,0.00846,"CC(Nc1c(-c2nc3ccc(C4CCOCC4)cc3[nH]2)c(=O)[nH]c2ccccc12)c1ncccn1 (single isomer, unassigned) [Compound 29a, (S*)-4-((1-(pyrimidin-2-yl)ethyl)amino)-3-(6-(tetrahydro-2H-pyran-4-yl)-1H-benzo[d]-imidazol-2-yl)quinolin-2(1H)-one]",4.69
0.000668,0.00501,0.000485,0.00708,"CC(Nc1c(-c2nc3ccc(N4CCN(CCC(F)(F)F)CC4)cc3[nH]2)c(=O)[nH]c2ccccc12)c1ncccn1 (single isomer, unassigned) [Compound 41a, (S*)-4-((1-(pyrimidin-2-yl)ethyl)amino)-3-(6-(4-(3,3,3-trifluoropropyl)piperazin-1-yl)-1H-benzo[d]imidazol-2-yl)quinolin-2(1H)-one]",6.97
0.00732,0.17,0.00235,0.315,"CC(Nc1c(-c2nc3ccc(N4CCOCC4)cc3[nH]2)c(=O)[nH]c2ccccc12)c1ccn(C(C)C)n1 (single isomer, unassigned) [Compound 36b, (S*)-4-((1-(1-isopropyl-1H-pyrazol-3-yl)ethyl)amino)-3-(6-morpholino-1H-benzo[d]-imidazol-2-yl)quinolin-2(1H)-one]",1.52
0.000552,0.00835,0.000302,0.00549,"C[C@H](Nc1c(-c2nc3ccc(N4CCCCC4)cc3[nH]2)c(=O)[nH]c2ccccc12)c1ncccn1 (single isomer, unassigned) [Compound 28a, (S*)-3-(6-(piperidin-1l-yl)-1H-benzo[d]imidazol-2-yl)-4-((1-(pyrimidin-2-yl)ethyl)-amino)quinolin-2(1H)-one]",7.22
0.000545,0.0289,0.000382,0.00419,"CC(Nc1c(-c2nc3cc(C(F)(F)F)c(N4CCC(C(=O)O)CC4)cc3[nH]2)c(=O)[nH]c2ccccc12)c1ncccn1 (single isomer, unassigned) [Compound 58, (S*)-1-(2-(2-oxo-4-((1-(pyrimidin-2-yl)ethyl)amino)-1,2-dihydroquinolin-3-yl)-5-(trifluoromethyl)-1H-benzo[d]imidazol-6-yl)piperidine-4-carboxylic acid]",8.24
0.0111,0.197,0.00286,0.127,"CC(Nc1c(-c2nc3ccc(N4CCOCC4)cc3[nH]2)c(=O)[nH]c2ccccc12)c1cnccn1 (single isomer, unassigned) [Compound 35b, (S*)-3-(6-morpholino-1H-benzo[d]imidazol-2-yl)-4-((1-(pyrazin-2-yl)ethyl)amino)-quinolin-2(1H)-one]",1.68
